This is an account of results in patent US20070099907A1 (priority 2002, published 2007).

Structures are written as SMILES. “Also recorded” adds a separate entry of the source.

For one data set, the system named is patients who had an ACS. The note with it: cited from earlier work.
Data set [1] has as its system postischemic cardiac dysfunction. The settings on record: cited from earlier work.
In data set [2] the test system is patients with acute coronary syndromes without ST-segment elevation. The data set can be described thus: Open, randomized, single-blind pilot study of meloxicam added to aspirin and heparin: cardiovascular events. It is filed as in vivo, human. As for the experimental part:
(§1) Patients were recruited from the Centro de Salud and the Centro Modelo de Cardiologia, Tucuman, Argentina. Inclusion criteria were chest pain within the previous 24 hours associated with ST-segment depression (>0.5 mm) and either ECG evidence of ischemia or previously documented coronary artery disease. Exclusion criteria were persistent ST-segment elevation and increased levels of the MB isoenzyme of creatine kinase (CK-MB) consistent with acute myocardial infarction, revascularization procedures within the preceding 6 months, malignancy, pregnancy, renal or hepatic diseases, use of anticoagulant therapy, treatment with anti-inflammatory drugs, or contraindication of the study drugs. […] Both groups received aspirin for 30 days. The dose range was 100 to 300 mg per day at the discretion of the treating physician. CK-MB levels were measured before randomization. Additional assays were performed after an episode of chest pain to confirm the diagnosis of acute MI. All patients received subcutaneous LMWH (either nadroparin 87 IU/kg BID or enoxaparin 1 mg/kg BID) or intravenous UFH given as an initial bolus of 5000 IU followed by continuous infusion at 1000 IU per hour for 7 days or until discharge from the hospital. The activated partial-thromboplastin time (APTT) was used to assess the degree of anticoagulation in patients receiving intravenous unfractionated heparin. Patients were tested every 12 hours on the first day and every 24 hours subsequently. The APTT was maintained in the range 45 to 87 seconds (normal value, 30±5 seconds).
[…] An additional secondary composite variable was determined: MI, death, and all revascularization procedures (percutaneous transluminal coronary angioplasty [PTCA] or coronary artery graft surgery [CABG]). Each component of the primary and secondary outcome variable was also recorded separately. […] Cardiac catheterization was performed at the discretion of treating physicians, but only urgent PTCA and CABG, usually after recurrent angina or MI, were considered as end points. Revascularization procedures were indicated after recurrence of chest pain refractory to medical treatment. During CCU stay and after discharge, all patients were examined for clinical events by an investigator who was unaware of treatment allocation. Patients were also instructed to report any events to study personnel immediately. The diagnostic criteria for MI were chest pain lasting 20 minutes or more with ECG changes and an at least 2-fold elevation of CK-MB. Recurrent angina was defined as recurrence of chest pain with ECG changes refractory to medical therapy (aspirin, heparin, nitroglycerin, and β-blockers).
Relative risks (RRs) and their 95% CI were obtained. The RR reduction (RRR) is defined as 1 minus RR and expressed as percentage. The absolute risk reduction (ARR) was calculated as the difference between the risk in control patients minus the risk in treated patients and expressed as percentage. A multiple logistic regression model was used to determine the predictive value of the variables associated with events at day 90 in the previous univariate analysis. The software used were CSS/Statistics 3.1 (StatSoft Corp) and EPI INFO 6 v.6.04, 1996.

Data set [3] deals with activated partial-thromboplastin time (APTT). Description: Activated partial thromboplastin time after unfractionated heparin in the pilot study. It is filed as in vivo, human. The note with it: for Activated Partial Thromboplastin Time, Mean ± SD: patients treated with unfractionated heparin; for Activated Partial Thromboplastin Time, Median: unfractionated heparin. Here is the method: as §1
The nature of the quantitative variables distribution was assessed by the Shapiro-Wilk test. Differences between the 2 treatment groups were analyzed by the Student's t test (independent samples) or the Mann-Whitney test, according to the nature of the distribution. Differences in terms of activated partial thromboplastin time after unfractionated heparin were assessed by a 2-way ANOVA model, with repeated measures in one of the factors (Student Newman-Keuls post-hoc test). Univariate associations between qualitative variables were assessed by X^2 (Yates corrected) and Spearman rank-order correlations.

For data set [4], the system named is patients with acute coronary syndromes without ST-segment elevation. Description: Safety observations in the pilot study. Format: in vivo, human. The settings on record: throughout the course of the study; meloxicam 15 mg/day + aspirin + heparin. Here is the method: as §1, with “An open, randomized, prospective, single-blind pilot study of the use of meloxicam in ACS patients without ST-segment elevation was performed. Patients” for “Patients”, “The activated partial-thromboplastin time (APTT) was used to assess the degree of anticoagulation in patients receiving intravenous unfractionated heparin. Patients were tested every 12 hours on the first day and every 24 hours subsequently. The APTT was maintained in the range 45 to 87 seconds (normal value, 30±5 seconds).” left out

The conditions of data set [5]: after bolus intravenous dose of 15 mg meloxicam; cited from earlier work.
A further data set concerns arthritic patients. The note with it: compared to patients treated with naproxen; cited from earlier work.
The test system of data set [6] is endothelial COX-2 expression. The settings on record: cited from earlier work.
The mark [7] stands for this setting: 90-day follow-up, cumulative, n=60 per group.
The mark [8] stands for this setting: 90-day follow-up, meloxicam group vs control.
[9] abbreviates: 90-day follow-up, meloxicam group vs control, listed as meloxicam.
The mark [10] stands for this setting: CCU period, meloxicam group vs control.
Where [11] appears, read: CCU period, meloxicam group vs control, listed as meloxicam.
Setting [12] is: CCU period, n=60 per group, listed as meloxicam.

Turning to `CC(=O)Oc1ccccc1C(=O)O` [ASA, acetylsalicylic acid], in the data set on patients who had an ACS, the “reduction of combined incidence of cardiovascular death, MI and stroke” value is 25%. The “aggravation of postischemic cardiac dysfunction” value in data set [1] is given as “aggravates postischemic cardiac dysfunction”.
Turning to `Cc1cnc(NC(=O)C2=C(O)c3ccccc3S(=O)(=O)N2C)s1` [Meloxicam, 4-hydroxy-2-methyl-N-(5-methyl-2-thiazolyl)-2H-1,2-benzothiazine-3-carboxamide-1,1-dioxide], in data set [2] (setting [7]), the “MI + death + revascularization, % (secondary composite)” value (“MI + death + revascularization, %” below) turned out to be 13.3%; the “MI + death + revascularization, n (secondary composite)” value was determined as 8 n; the “Recurrent angina + MI + vascular death, % (primary composite)” value is listed as 21.7%; the “Recurrent angina + MI + vascular death, n (primary composite)” value was determined as 13 n. The “Recurrent angina, %” value in data set [2] (setting [7]) was 20.0%. The “Recurrent angina, %” value in data set [2] (90-day follow-up, cumulative, n=60 per group, listed as meloxicam) stood at 20%. Moreover, in data set [2] (setting [8]), the “ARR %, MI + death + revascularization” value is 20.0%; the “ARR %, recurrent angina” value was 23.3%; the “ARR %, revascularization” value was 18.3%; the “RRR (95% CI), recurrent angina” value is given as 53.8 (17-74) %. Besides, in data set [2] (setting [8]), the “RRR (95% CI), recurrent angina + MI + vascular death” value is on record as 55.1 (22-74) % and the “RRR (95% CI), revascularization” value was 61.0 (14-82) %. In data set [2] (setting [9]), the “RRR (95% CI), MI + death + revascularization” value stood at 60.1%; the “RRR (95% CI), recurrent angina” value is listed as 53.8%; the “RRR (95% CI), recurrent angina + MI + vascular death” value was found to be 55.1%; the “RRR (95% CI), revascularization” value is given as 61%. Besides, the “Revascularization, %” value in data set [2] (90-day follow-up, n=60 per group) is on record as 11.7%. Also, the “Recurrent angina, %” value in data set [2] (CCU period, meloxicam + aspirin + heparin vs control aspirin + heparin, n=60 per group) amounted to 15.0%. Besides, in data set [2] (setting [10]), the “ARR %, MI + death + revascularization” value is 16.7%; the “ARR %, all revascularization” value came to 15.0%; the “ARR %, recurrent angina” value stood at 20.0%; the “ARR %, recurrent angina + MI + vascular death” value came out at 23.3%. Also, in data set [2] (setting [10]), the “RRR (95% CI), MI + death + revascularization” value is 62.5 (11-84) %; the “RRR (95% CI), all revascularization” value is reported as 60.1%; the “RRR (95% CI), recurrent angina” value is recorded as 57.1 (14-79) %; the “RRR (95% CI), recurrent angina + MI + vascular death” value is recorded as 60.8 (23-80) %. Further, in data set [2] (setting [11]), the “ARR %, all revascularization” value is recorded as 15%; the “ARR %, recurrent angina” value was 20%; the “RRR (95% CI), MI + death + revascularization” value is 62.5%; the “RRR (95% CI), all revascularization” value is 60.8%. Also, in data set [2] (setting [11]), the “RRR (95% CI), recurrent angina” value came to 57.1% and the “RRR (95% CI), recurrent angina + MI + vascular death” value is on record as 60.8%. In data set [2] (CCU period, n=60 per group), the “All revascularization, %” value turned out to be 10.0%; the “MI + death + revascularization, %” value is listed as 10.0%; the “MI + death + revascularization, n (secondary composite)” value was 6 n; the “Recurrent angina + MI + vascular death, % (primary composite)” value came out at 15.0%. The “Recurrent angina + MI + vascular death, n (primary composite)” value in data set [2] (CCU period, n=60 per group) is 9 n. Also, in data set [2] (setting [12]), the “MI + death + revascularization, %” value is given as 10% and the “Recurrent angina + MI + vascular death, % (primary composite)” value was 15%. In addition, in data set [2] (at 30 days), the “patients reaching the additional secondary outcome variable (MI, death, revascularization)” value is 11.7% and the “patients reaching the primary outcome variable (recurrent angina, MI, or death)” value amounted to 20.0%. For the same molecule, the “improvement of the ARR in recurrent angina” value in data set [2] (during the 30-day treatment period) amounted to 3.3%. For the same molecule, the “decrease of the triple end points (recurrent angina, MI and vascular death or MI, death and coronary revascularization procedures)” value in data set [2] (meloxicam with aspirin and heparin, ACS without ST-segment elevation) stood at 60%. In addition, the “patients reaching the primary outcome variable (recurrent angina, MI, or death)” value in data set [2] (within 48 hours of randomization) is recorded as 1.7%. Moreover, in data set [3] (Day 1), the “Activated Partial Thromboplastin Time, Mean ± SD” value was 55.8 ± 26.4 s and the “Activated Partial Thromboplastin Time, Median” value was 48 s. In data set [3] (Day 2), the “Activated Partial Thromboplastin Time, Mean ± SD” value was 69.6 ± 19.9 s and the “Activated Partial Thromboplastin Time, Median” value is given as 62 s. Also, in data set [3] (Day 3), the “Activated Partial Thromboplastin Time, Mean ± SD” value is on record as 89.9 ± 24.4 s and the “Activated Partial Thromboplastin Time, Median” value is 86 s. Moreover, the “Activated Partial Thromboplastin Time, Mean ± SD” value in data set [3] (Day 4, control vs meloxicam P < 0.05) is 89.3 ± 20.8 s. Moreover, in data set [3] (Day 4), the “Activated Partial Thromboplastin Time, Median” value is given as 84.5 s. In addition, the “adverse complications (bleeding complications, side effects, intolerance)” value in data set [4] is given as “No adverse complications; also recorded: No bleeding complications, side effects, or intolerance”. Also, in data set [5], the highest concentration (Cmax) – broadly, the maximum level reached in the sampled fluid or tissue – is 3000 ng/mL and the tmax was 3 min.
On to `CS(=O)(=O)c1ccc(C2=C(c3ccccc3)C(=O)OC2)cc1` [rofecoxib], for which the “risk of heart attack” value with arthritic patients is given as “five-fold higher risk of heart attack”.
For `CC(=O)Oc1cc(C(F)(F)F)ccc1C(=O)O` [triflusal], the “inhibitory activity against endothelial COX-2 expression” value in data set [6] is recorded as “very little inhibitory activity”.
